This note sets out measurements from patent US20100069319A1, “Mercaptopurine derivatives and uses thereof” (priority 2007, published 2010).

For one data set, the system named is N87 cells. Put plainly: [3H] thymidine incorporation into DNA (cell proliferation). The settings on record: 16 h. Format: cell-based, human. Here is the method: The effects of 6-MP derivatives on DNA synthesis were assessed by [Methyl-^3H] thymidine incorporation into DNA. All the experiments performed with cells were carried out at least in triplicates. Adhesive cells (N87, Hela HtTA-1 and MDR HT-29) were seeded at 10,000 cells/well (96-well plate) or 60,000 cells/well (24-well plate). Cells in suspension (B-CLL, Daudi, HL-60, Jurkat, MOLT4 and U937cells) were seeded at 15,000 cells/well (96-wells plate) or 100,000 cells/well (24-wells plate). Adhesive cells were grown at 37° C. for 6 h after seeding, before treatment. For the assessment of [Methyl-^3H] thymidine incorporation, cells were treated with various concentrations of 6-MP derivatives at 37° C. for 16 h in the presence of [Methyl-^3H] thymidine (0.8-1.0 μCi/well). Then, plates were frozen (−20° C., 1 h). Adhesive cells were trypsinized before harvesting. Cells in suspension were directly harvested after thawing out the frozen cells.
The antiproliferative effect of 6-MP and SA-6MP on various cell lines was assessed by determining [^3H] thymidine incorporation into the DNA. 6-MP and SA-6MP at 0-200 μM were applied to Daudi, Hela and N87 cells cultured in 96-well plates in the presence of [^3H] thymidine, as described in Materials and Methods. […] As further shown, the sensitivity to the prodrug is cell type dependent.

Data set [1] deals with B-CLL cells. Put plainly: Apoptosis by Annexin-Cy5 FACS analysis. The format is cell-based, human. Particulars: 16 h. Here is the method:
Apoptosis analysis in B-CLL cells treated with 6-MP derivatives at different concentration (16 h, at 37° C.) was done by FACS analysis. B-CLL cells were incubated with FITC-CD19 anti-human antibodies (Becton Dickinson, NJ, USA) for 20 minutes at 4° C. After washing off the unbound antibodies, samples were incubated with 5 μl Annexin-Cy5 (Pharmingen, San Diego, Calif., USA) in 10 mM HEPES pH 7.4 buffer containing 140 mM NaCl and 2.5 mM CaCl2, (HBS) for 10 minutes at room temperature. Subsequently, unbound Annexin was washed out and the samples were analyzed using FACScan analyzer (Becton-Dickinson, NJ, USA). The lymphocytes were counted and gated according to their size in forward and side scatters.
The slight decrease in viability of B-CLL human peripheral blood mononuclear cells (PBMC) upon incubation in the presence of 6-MP or SA-6MP was further investigated. B-CLL cells were treated with various concentrations of either 6-MP or SA-6MP and were subjected to flow cytometry analysis, as described in Materials and Methods, in order to monitor cells undergoing apoptosis.
In general terms: Flow cytometry measures light scatter and fluorescence of single cells or particles in a stream.

The next data set deals with Daudi cells. The data set can be described thus: Cell death by trypan blue dye exclusion / PI. The format is cell-based. Particulars: 16 h. Here is the method:
(§1) Cell death was monitored by trypan blue dye exclusion test or propidium iodide (PI) incorporation. Treated cells were incubated with PI (2 μg/ml) for 20 min at 37° C., washed with HBS and examined by fluorescence microscopy or analyzed by flow cytometry using fluorescence-activated cell sorting (Becton Dickinson FACScan Instrument using CellQuest software (BD Bioscience, San Jose, Calif.). Monolayer cells were trypsinized and washed with HBS before FACS analysis.
(§2) In parallel, the trypan blue dye exclusion test was used to assess cell death. In particular, different concentrations of 6MP and SA-6MP were applied to various cell cultures (Daudi and Hela cells, each at 30,000 cells/well) as described in Materials and Methods. The cells were stained with trypan blue to monitor the lethal effect of several concentrations of the tested conjugates as the percentage of dead cells. As shown in FIG. 3A-3D, cell death induced by 6-MP and SA-6MP was both concentration and cell type dependent. […] SA-6MP at concentrations higher than 150 μM reduced the residual viability to 75% (FIG. 3D).

The next data set concerns B-CLL. Put plainly: Anti-proliferative concentration IC50 (Table 2). The format is cell-based. The settings on record: Homo sapiens, 16 h, tested at 0-100 μM, read-out: Anti-proferative concentration - IC50 (mean ± SE). Here is the method:
(§3) Cell proliferation was determined by the XTT viability assay in 96-well plates, based on the reduction of tetrazolium salt to soluble formazan compounds by living cells. Cells (10,000-15,000 cells/well) were seeded in a 96-well plate. After 16 h incubation with various concentrations of 6-MP, 6-MPR and their S-allylthio-derivatives, 50 μl of XTT/PMS mixture (50 μM PMS, 0.1% XTT in medium) was added onto the cells. After an incubation period of 3-4 h at 37° C. the absorbance of the samples was measured in an ELISA Reader at 450 nm. SDS (1%, 10 μl/well) was added to reference wells before adding the XTT/PMS solution.
(§4) The results of viability and proliferation were expressed as mean values±SD (n=3-6). For each cell line, the results were analyzed using two-way analysis of variance (ANOVA) followed by Bonferroni's posttest for the factors of the drugs used and their various concentrations, considering p<0.05 as significant. IC50 values (mean±SEM) were obtained from the linear range of the viability curve versus drug concentration (XTT assay).
(§5) In particular, cell in suspension, namely, Daudi, HL-60, U937, Molt-4, Jurkat and B-CLL, were tested at prodrug concentration of 0-100 μM, and monolayer cells, namely, Hela HtTA-1, MDR HT-29 and N87, were tested at prodrug concentration of 0-200 μM. in both cases, cell viability was determined by trypan blue dye exclusion assay. Data are presented in Table 2 hereinbelow for 6MP derivatives-treated for 16 h.

The next data set has as its system Molt-4. Put plainly: Anti-proliferative concentration IC50 (Table 2). The format is cell-based. Particulars: Homo sapiens; Molt-4, 16 h, tested at 0-100 μM; read-out: Anti-proferative concentration - IC50 (mean ± SE). As to the method: as §3, §4, §5
The subject of the next data set is Daudi. The data set can be described thus: Anti-proliferative concentration IC50 (Table 2). The format is cell-based. Particulars: Homo sapiens, 16 h, tested at 0-100 μM, read-out: Anti-proferative concentration - IC50 (mean ± SE). Here is the method:
as §3, §4, §5

The test system of data set [2] is MDR HT-29 cells. Put plainly: Cell death assessment by PI staining, phase-contrast and fluorescence microscopy. Format: cell-based, human. Particulars: MDR HT-29, 150 μM, 16 h. As to the method:
as §1
In order to determine the toxic effect of 6-MP and SA-6MP on multidrug resistant cell lines, MDR HT-29 cells were treated for 16 h with 150 μM of either 6-MP or SA-6MP for 16 h, and were then stained with PI.

The subject of the next data set is Hela cells. The data set can be described thus: Cell death by trypan blue dye exclusion / PI. Format: cell-based, human. Particulars: 16 h; for sensitivity to treatment (cell death, words): 100 μM. Here is the method: as §1, §2
Data set [3] relates to B-CLL cells. Put plainly: Cell death by trypan blue dye exclusion / PI. Format: cell-based, human. Particulars: 16 h. As to the method: as §1, §2
The subject of data set [4] is MDR HT-29 cells. The data set can be described thus: Cell death by trypan blue dye exclusion / PI. Format: cell-based, human. The settings on record: 16 h; for sensitivity to treatment (cell death, words): MDR HT-29, 100 μM. As to the method: as §1, §2

In general, viability refers to a read-out of living cells in per cent, often relative to untreated cells.

Regarding `Sc1ncnc2nc[nH]c12` [6-MP, 6-Mercaptopurine, reference compound], the “inhibition of proliferation” value in the data set with N87 cells (at the same concentrations (0-200 μM)) is listed as “no inhibition of proliferation”. Also, the “percent of apoptotic cells” value in the data set with B-CLL cells [1] (0-150 μM) is on record as “no significant increase in the percent of apoptotic cells”. The “effect on cell viability” value with Daudi cells (concentrations higher than 100 μM) is on record as “no significant effect on cell viability”. Moreover, the IC50 with B-CLL is greater than 900 µM; with Molt-4, 50.5 ± 6.1 µM; in the data set with Daudi, greater than 200 µM. Also, in the data set on MDR HT-29 cells [2], the “epithelial-like growth / cell death” value is reported as “no inhibition was observed”. Further, the “sensitivity to treatment (cell death, words)” value with Hela cells and in the data set on MDR HT-29 cells [4] was “almost non-sensitive” in each case. Moreover, the viability at 200 µM in the data set with Hela cells (Homo sapiens, 200 μM) was 75%. In the data set with B-CLL cells [3] (100-200 μM), the “sensitivity to treatment” value is listed as “almost insensitive”.

Take `C=CCSSc1ncnc2nc[nH]c12` [SA-6MP, S-allylthio-6-mercaptopurine]: the IC50 is 100 µM with N87 cells (Homo sapiens, [3H] thymidine incorporation, read-out: concentration at which 50% inhibition was observed); 129 ± 14.2 µM with B-CLL; 8.9 ± 1.2 µM in the data set with Molt-4; 38.3 ± 3.9 µM in the data set with Daudi. The “percent of apoptotic cells” value is recorded as 38% with B-CLL cells [1] (50 μM) and 95% with B-CLL cells [1] (100 μM). Further, in the data set with Daudi cells (Homo sapiens, 50 μM, read-out: residual viability), the viability at 50 µM was roughly 20%. Besides, the “epithelial-like growth / cell death” value with MDR HT-29 cells [2] is given as “epithelial-like growth was inhibited”. Further, the “sensitivity to treatment (cell death, words)” value with Hela cells and with MDR HT-29 cells [4] was “almost non-sensitive” in each case. The viability at 150 µM was 65% in the data set with Hela cells (Homo sapiens, 150 μM, read-out: viability compared to non-treated cells) and 40% in the data set with MDR HT-29 cells [4] (Homo sapiens, MDR HT-29, 150 μM, read-out: viability compared to non-treated cells). Further, in the data set with B-CLL cells [3] (concentrations higher than 150 μM), the residual viability is reported as 75%.
